For 32 compounds, IC50 results are on record in US8592629B2, “Sulfonamide derivatives as Nav 1.7 inhibitors” (Pfizer Limited, priority 2010, dated 2013).

Structures can show the parent of a compound that is named as a salt.

T1 sequence (Q15858 whole entry): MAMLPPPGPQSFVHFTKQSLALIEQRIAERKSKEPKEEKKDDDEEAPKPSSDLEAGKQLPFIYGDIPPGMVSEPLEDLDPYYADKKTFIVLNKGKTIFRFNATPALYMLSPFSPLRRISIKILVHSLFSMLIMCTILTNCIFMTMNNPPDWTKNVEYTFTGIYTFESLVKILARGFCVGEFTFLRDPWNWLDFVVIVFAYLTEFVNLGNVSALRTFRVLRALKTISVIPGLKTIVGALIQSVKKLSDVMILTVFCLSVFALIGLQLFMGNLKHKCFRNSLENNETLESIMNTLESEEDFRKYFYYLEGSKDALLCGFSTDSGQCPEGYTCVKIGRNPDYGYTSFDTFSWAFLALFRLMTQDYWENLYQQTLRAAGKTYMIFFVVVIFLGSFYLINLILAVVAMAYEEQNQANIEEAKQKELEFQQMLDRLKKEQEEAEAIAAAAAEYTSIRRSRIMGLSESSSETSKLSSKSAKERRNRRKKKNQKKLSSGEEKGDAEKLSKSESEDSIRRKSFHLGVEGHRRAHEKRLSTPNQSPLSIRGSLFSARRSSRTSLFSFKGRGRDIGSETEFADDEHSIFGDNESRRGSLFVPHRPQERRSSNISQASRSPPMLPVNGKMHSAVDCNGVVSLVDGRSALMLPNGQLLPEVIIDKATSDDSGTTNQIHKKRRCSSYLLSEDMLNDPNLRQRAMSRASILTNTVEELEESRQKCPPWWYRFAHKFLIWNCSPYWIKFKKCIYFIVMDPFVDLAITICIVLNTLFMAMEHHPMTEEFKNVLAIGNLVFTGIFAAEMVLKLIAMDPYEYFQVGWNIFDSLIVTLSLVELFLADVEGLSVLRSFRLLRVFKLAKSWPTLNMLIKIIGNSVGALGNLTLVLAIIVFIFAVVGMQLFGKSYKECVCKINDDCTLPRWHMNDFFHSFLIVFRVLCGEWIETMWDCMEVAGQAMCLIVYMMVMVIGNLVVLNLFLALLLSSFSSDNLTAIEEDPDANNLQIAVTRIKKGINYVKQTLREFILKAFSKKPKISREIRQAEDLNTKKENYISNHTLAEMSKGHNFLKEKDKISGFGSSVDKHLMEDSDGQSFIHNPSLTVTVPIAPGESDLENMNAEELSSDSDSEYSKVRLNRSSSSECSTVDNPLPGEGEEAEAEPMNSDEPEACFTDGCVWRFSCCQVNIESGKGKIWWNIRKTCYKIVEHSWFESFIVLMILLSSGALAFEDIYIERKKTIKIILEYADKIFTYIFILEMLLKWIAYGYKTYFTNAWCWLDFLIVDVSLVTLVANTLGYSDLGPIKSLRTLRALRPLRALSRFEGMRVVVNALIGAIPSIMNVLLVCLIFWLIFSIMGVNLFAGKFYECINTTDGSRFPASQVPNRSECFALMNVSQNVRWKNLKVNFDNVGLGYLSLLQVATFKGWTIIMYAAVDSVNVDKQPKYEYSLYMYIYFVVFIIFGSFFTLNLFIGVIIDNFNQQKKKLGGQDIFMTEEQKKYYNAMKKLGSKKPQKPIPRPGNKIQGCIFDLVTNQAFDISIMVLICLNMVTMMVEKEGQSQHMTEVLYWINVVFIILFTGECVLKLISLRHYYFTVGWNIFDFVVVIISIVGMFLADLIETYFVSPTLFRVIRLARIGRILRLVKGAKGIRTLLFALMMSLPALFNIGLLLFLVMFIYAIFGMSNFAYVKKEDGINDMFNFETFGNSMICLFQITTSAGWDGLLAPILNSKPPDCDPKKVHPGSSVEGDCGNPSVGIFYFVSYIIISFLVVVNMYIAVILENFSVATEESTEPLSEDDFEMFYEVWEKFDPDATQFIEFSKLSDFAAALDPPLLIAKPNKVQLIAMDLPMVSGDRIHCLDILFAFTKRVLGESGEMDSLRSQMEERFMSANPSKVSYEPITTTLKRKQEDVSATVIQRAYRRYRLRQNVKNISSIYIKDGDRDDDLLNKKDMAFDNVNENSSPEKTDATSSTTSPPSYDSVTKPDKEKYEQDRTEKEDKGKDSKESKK

One assay addresses T1, Nav1.7 (or SCN9A) channel (Homo sapiens, UniProt Q15858).
T1 construct: expressed in transfected cells
Description: Nav1.7 (hSCN9A) block in HEK cells, PatchXpress 7000 automated electrophysiology, estimated IC50 (EIC50). In kind it is cell-based. The note with it: PatchXpress assay; HEK cells stably transfected with hSCN9A, voltage-clamped at V1/2 of inactivation. The essentials:
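Stable hSCN9A HEK cells voltage-clamped at empirically determined inactivation V1/2 (8 s prepulse), current activated by 20 msec step to 0 mV; % inhibition from current before vs after compound. EIC50 derived from single-point data as concentration × (100−%inhibition)/%inhibition, excluding <20% and >80% inhibition; PatchXpress unless stated.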
With `CC(C)COc1ncc(Oc2cc(F)c(C(=O)NS(C)(=O)=O)cc2F)cc1Cl` [Example 23, 4-[(5-chloro-6-isobutoxypyridin-3-yl)oxy]-2,5-difluoro-N-(methylsulfonyl)benzamide], the IC50 was 0.039 µM.
Turning to `CS(=O)(=O)NC(=O)c1ccc(Oc2cnc(C(F)(F)F)c(Cl)c2)cc1` [Example 9, 4-{[5-Chloro-6-(trifluoromethyl)pyridin-3-yl]oxy}-N-(methylsulfonyl)benzamide], the IC50 was over 1 µM.
On the same count and under the same terms, to `CS(=O)(=O)NC(=O)c1cc(F)c(Oc2cnc(N3CC(F)C3)c(Cl)c2)cc1F` [Example 134, 4-{[5-chloro-6-(3-fluoroazetidin-1-yl)pyridin-3-yl]oxy}-2,5-difluoro-N-(methylsulfonyl)benzamide] belongs 0.58 µM; to `CS(=O)(=O)NC(=O)c1cc(F)c(Oc2cc(Cl)cc3cccnc23)cc1F` [Example 88, 4-[(6-chloroquinolin-8-yl)oxy]-2,5-difluoro-N-(methylsulfonyl)benzamide], over 3 µM.
Turning to `CC(C)c1nccnc1Oc1cc(F)c(C(=O)NS(C)(=O)=O)cc1F` [Example 193, 2,5-difluoro-4-[(3-isopropylpyrazin-2-yl)oxy]-N-(methylsulfonyl)benzamide], the IC50 is 2.1 µM.
With `CC(C)COc1ncc(Oc2ccc(C(=O)NS(C)(=O)=O)c(F)c2)cc1Cl` [Example 74, 4-[(5-chloro-6-isobutoxypyridin-3-yl)oxy]-2-fluoro-N-(methylsulfonyl)benzamide], the IC50 was 0.05 µM.
`CC(C)Oc1ncc(Oc2ccc(C(=O)NS(C)(=O)=O)cc2C#N)cc1Cl` [Example 73, 4-[(5-chloro-6-isopropoxypyridin-3-yl)oxy]-3-cyano-N-(methylsulfonyl)benzamide]: the IC50 was 0.62 µM.
Regarding `O=C(NS(=O)(=O)C1CC1)c1cc(Cl)c(Oc2cnc(C3CC3)c(Cl)c2)cc1F` [Example 92, 5-chloro-4-(5-chloro-6-cyclopropylpyridin-3-yloxy)-N-(cyclopropylsulfonyl)-2-fluorobenzamide], the IC50 was 0.05 µM.
On to `COc1c(F)c(Oc2cnc(OC(C)C)c(Cl)c2)cc(F)c1C(=O)NS(C)(=O)=O` [Example 72, 4-[(5-chloro-6-isopropoxypyridin-3-yl)oxy]-3,6-difluoro-2-methoxy-N-(methylsulfonyl)benzamide], for which the IC50 was over 1 µM.
Same read-out and setting: as for `CNc1ncc(Oc2cc(F)c(C(=O)NS(C)(=O)=O)cc2F)cc1Cl` [Example 137, 4-{[5-chloro-6-(methylamino)pyridin-3-yl]oxy}-2,5-difluoro-N-(methylsulfonyl)benzamide], the figure is 3.2 µM; as for `COc1ncc(Oc2ccc(C(=O)NS(C)(=O)=O)cc2Cl)cc1Cl` [Example 83, 3-chloro-4-[(5-chloro-6-methoxypyridin-3-yl)oxy]-N-(methylsulfonyl)benzamide], over 10 µM; as for `COC(C)(C)CNc1ncc(Oc2cc(F)c(C(=O)NS(C)(=O)=O)cc2F)cc1Cl` [Example 122, 4-({5-chloro-6-[(2-methoxy-2-methylpropyl)amino]pyridin-3-yl}oxy)-2,5-difluoro-N-(methylsulfonyl)benzamide], 0.25 µM.
Turning to `CS(=O)(=O)NC(=O)c1ccc(Nc2cnc(OC(C(F)(F)F)C(F)(F)F)c(Cl)c2)cc1` [Example 103, 4-(5-chloro-6-(1,1,1,3,3,3-hexafluoropropan-2-yloxy)Pyridin-3-ylamino)-N-(methylsulfonyl)benzamide], the IC50 is 0.4 µM.
For the compound `CC(F)(F)Oc1cc(Oc2cc(F)c(C(=O)NS(C)(=O)=O)cc2Cl)cnc1C1CC1` [Example 104, 5-chloro-4-(6-cyclopropyl-5-(1,1-difluoroethoxy)pyridin-3-yloxy)-2-fluoro-N-(methylsulfonyl)benzamide hydrochloride salt], the IC50 was 0.067 µM.
For `CC(F)(F)c1ncc(Oc2cc(F)c(C(=O)NS(C)(=O)=O)cc2Cl)cc1Cl` [Example 44, 5-chloro-4-{[5-chloro-6-(1,1-difluoroethyl)pyridin-3-yl]oxy}-2-fluoro-N-(methylsulfonyl)benzamide], the IC50 is 0.56 µM.
Still for that read-out and setting: to `CS(=O)(=O)NC(=O)c1cc(F)c(Oc2ncccc2C(F)(F)F)cc1F` [Example 182, 2,5-difluoro-N-(methylsulfonyl)-4-{[3-(trifluoromethyl)pyridin-2-yl]oxy}benzamide] belongs over 3 µM; to `COc1ncc(Oc2cc(F)c(C(=O)NS(=O)(=O)C3CC3)cc2F)cc1Cl` [Example 15, 4-(5-Chloro-6-methoxypyridin-3-yloxy)-N-(cyclopropylsulfonyl)-2,5-difluorobenzamide diethylamine salt], 4.6 µM.
Take `CC(C)Nc1ncc(Oc2cc(F)c(C(=O)NS(C)(=O)=O)cc2F)cc1Cl` [Example 79, 4-{[5-chloro-6-(isopropylamino)pyridin-3-yl]oxy}-2,5-difluoro-N-(methylsulfonyl)benzamide]: the IC50 was 0.15 µM.
Consider `CS(=O)(=O)NC(=O)c1cc(Cl)c(Oc2cnc(OCC(F)(F)C(F)F)c(Cl)c2)cc1F` [Example 22, 5-chloro-4-{[5-chloro-6-(2,2,3,3-tetrafluoropropoxy)pyridin-3-yl]oxy}-2-fluoro-N-(methanesulfonyl)benzamide], for which the IC50 was 0.019 µM.
The same measure, in the same setting: as for `CC(Oc1ncc(Oc2cc(F)c(C(=O)NS(C)(=O)=O)cc2F)cc1Cl)C(F)(F)F` (centres unmarked) [Example 12, 4-{[5-Chloro-6-(2,2,2-trifluoro-1-methylethoxy)pyridin-3-yl]oxy}-2,5-difluoro-N-(methylsulfonyl)benzamide], the figure is 0.12 µM; as for `COc1ncc(Oc2cc(F)c(C(=O)NS(C)(=O)=O)cc2F)cc1Cl` [Example 25, 4-[(5-chloro-6-methoxypyridin-3-yl)oxy]-2,5-difluoro-N-(methylsulfonyl)benzamide], 9.8 µM.

The target of the next assay is T1, Nav1.7 (or SCN9A) channel. Briefly: Nav1.7 (hSCN9A) block in HEK cells, Ionworks Quattro automated electrophysiology. In kind it is cell-based. The note with it: Ionworks Quattro assay (IW); HEK cells stably transfected with hSCN9A; read-out: Nav1.7 EIC50 (IW). How it is done:
The ability of the compounds of formula (I) to block the Nav1.7 (or SCN9A) channel were measured using the assay described below.
Human Embryonic Kidney (HEK) cells were transfected with an hSCN9A construct using lipofectamine reagent (Invitrogen), using standard techniques. Cells stably expressing the hSCN9A constructs were identified by their resistance to G-418 (400 μg/ml). Clones were screened for expression using the whole-cell voltage-clamp technique.
HEK cells stably transfected with hSCN9A were maintained in DMEM medium supplemented with 10% heat-inactivated fetal bovine serum and 400 μg/ml G-418 in an incubator at 37° C. with a humidified atmosphere of 10% CO2. For HTS, cells were harvested from flasks by trypsinization and replated in an appropriate multi-well plate (typically 96 or 384 wells/plate) such that confluence would be achieved within 24 hours of plating. For electrophysiological studies, cells were removed from the culture flask by brief trypsinization and re-plated at low density onto glass cover slips. Cells were typically used for electrophysiological experiments within 24 to 72 hours after plating.
Electrophysiological assays were also conducted using the lonworks Quattro automated electrophysiological platform (Molecular Devices Corp). Intracellular and extracellular solutions were as described above with the following changes, 120 μg/ml amphotericin was added to the intracellular solution to perforate the membrane and allow electrical access to the cells. hSCN9A cells were grown and harvested as for PatchXpress and cells were resuspended in extracellular solution at a concentration of 1×10^6 cells/ml. The onboard liquid handling facility of the Ionworks Quattro was used for dispensing cells and application of test compounds. A voltage protocol was then applied that comprised of a voltage step to fully inactivate the sodium channels, followed by a brief hyperpolarized recovery period to allow partial recovery from inactivation for unblocked sodium channels, followed by a test depolarized voltage step to assess magnitude of inhibition by test compound. Compound effect was determined based on current amplitude difference between the pre-compound addition and post-compound addition scans.
Compounds of the Examples were tested in the assays described above and found to have the Nav1.7 EIC50 (μM) values specified in the table below. All data are derived from the PatchXpress assay unless explicitly stated otherwise.
In general terms: The patch-clamp technique gives a direct electrical read-out from membranes.
With `Cc1ncc(Oc2ccc(C(=O)NS(C)(=O)=O)cc2Cl)cn1` [Example L58, 3-chloro-4-[(2-methylpyrimidin-5-yl)oxy]-N-(methylsulfonyl)benzamide], the IC50 is 216 µM.
As for `CS(=O)(=O)NC(=O)c1ccc(Oc2nccc3ccccc23)c(Cl)c1` [Example L36, 3-chloro-4-(isoquinolin-1-yloxy)-N-(methylsulfonyl)benzamide], the IC50 was over 323 µM.
In the case of `COc1c(C(=O)NS(C)(=O)=O)ccc(Oc2cnc(N3CCCCC3)nc2)c1F` [Example L62, 3-fluoro-2-methoxy-N-(methylsulfonyl)-4-[(2-piperidin-1-ylpyrimidin-5-yl)oxy]benzamide], the IC50 worked out at 57.4 µM.
In the case of `Cc1cc(Oc2cc(F)c(C(=O)NS(C)(=O)=O)cc2F)ncn1` [Example 199, 2,5-difluoro-4-[(6-methylpyrimidin-4-yl)oxy]-N-(methylsulfonyl)benzamide], the IC50 was over 323 µM.
Regarding `CCCc1ncc(F)c(Oc2cc(F)c(C(=O)NS(C)(=O)=O)cc2F)n1` [Example 197, 2,5-difluoro-4-[(5-fluoro-2-propylpyrimidin-4-yl)oxy]-N-(methylsulfonyl)benzamide], the IC50 is over 323 µM.
Same read-out and setting: as for `CS(=O)(=O)NC(=O)c1cc(Cl)c(Oc2nccc3ccccc23)cc1F` [Example L38, 5-chloro-2-fluoro-4-(isoquinolin-1-yloxy)-N-(methylsulfonyl)benzamide], the figure is over 323 µM; as for `Cc1cc(C#N)nc(Oc2cc(F)c(C(=O)NS(C)(=O)=O)cc2F)c1` [Example 185, 4-[(6-cyano-4-methylpyridin-2-yl)oxy]-2,5-difluoro-N-(methylsulfonyl)benzamide], over 323 µM.
Take `Cc1cc(N(C)C)nc(Oc2cc(F)c(C(=O)NS(C)(=O)=O)cc2F)n1` [Example 186, 4-{[4-(dimethylamino)-6-methylpyrimidin-2-yl]oxy}-2,5-difluoro-N-(methylsulfonyl)benzamide]: the IC50 is over 323 µM.
As for `CS(=O)(=O)NC(=O)c1ccc(Oc2cnc3ccccc3c2)c(C#N)c1` [Example L35, 3-cyano-N-(methylsulfonyl)-4-(quinolin-3-yloxy)benzamide], the IC50 came to 50.2 µM.
Still for that read-out and setting: to `COc1ccc2nc(Oc3cc(F)c(C(=O)NS(C)(=O)=O)cc3F)ccc2c1` [Example 190, 2,5-difluoro-4-[(6-methoxyquinolin-2-yl)oxy]-N-(methylsulfonyl)benzamide] belongs 29.3 µM.
As to `Cc1ncc(Oc2ccc(C(=O)NS(C)(=O)=O)cc2C(F)(F)F)cn1` [Example L61, 4-[(2-methylpyrimidin-5-yl)oxy]-N-(methylsulfonyl)-3-(trifluoromethyl)benzamide], the IC50 stood at 100 µM.
